According to publication PMC9225712, “Rational design of biodegradable sulphonamide candidates treating septicaemia by synergistic dual inhibition of COX-2/PGE2 axis and DHPS enzyme” (Journal of Enzyme Inhibition and Medicinal Chemistry, 2022):
Marks after values point to notes of the source that are not given here.

Legend:
[1] = tested on: Staphylococcus aureus (RCMB 0100183); test: Inhibition zone, agar cup diffusion; conditions: RCMB0100183, 24 h, read-out: inhibition zones (IZ) S. aureus
[2] = tested on: Bacillus subtilis (RCMB 0100162); test: Inhibition zone, agar cup diffusion; conditions: RCMB0100162, 24 h, read-out: inhibition zones (IZ) B. subtillis
[3] = biological target: T1, human recombinant COX-2 (Homo sapiens, UniProt P35354); test: In vitro COX-2 enzymatic assay (Cayman kit 560131); conditions: for SI COX-1/COX-2: COX-2 selectivity index: COX-1 IC50/COX-2 IC50
T1 sequence (P35354 18-604): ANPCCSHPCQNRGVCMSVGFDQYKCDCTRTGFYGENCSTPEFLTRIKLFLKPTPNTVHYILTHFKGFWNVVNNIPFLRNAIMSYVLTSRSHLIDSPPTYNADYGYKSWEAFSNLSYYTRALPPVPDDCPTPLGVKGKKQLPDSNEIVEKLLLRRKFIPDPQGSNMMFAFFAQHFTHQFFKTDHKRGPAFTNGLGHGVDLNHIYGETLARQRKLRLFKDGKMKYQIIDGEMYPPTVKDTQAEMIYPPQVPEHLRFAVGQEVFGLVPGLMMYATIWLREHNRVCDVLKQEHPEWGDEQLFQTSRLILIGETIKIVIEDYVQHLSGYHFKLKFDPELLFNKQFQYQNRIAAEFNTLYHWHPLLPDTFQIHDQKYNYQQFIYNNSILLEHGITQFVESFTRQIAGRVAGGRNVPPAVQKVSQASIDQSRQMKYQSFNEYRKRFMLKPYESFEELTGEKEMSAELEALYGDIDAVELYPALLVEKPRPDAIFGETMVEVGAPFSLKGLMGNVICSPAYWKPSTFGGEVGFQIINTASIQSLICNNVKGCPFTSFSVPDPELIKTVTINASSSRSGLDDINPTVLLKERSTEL

[4] = tested on: Shigella dysenteriae (RCMB 0100542); test: Inhibition zone, agar cup diffusion; assay type: cell-based; conditions: RCMB0100542, 24 h, read-out: inhibition zones (IZ) S. dysenteriae
[5] = tested on: Pseudomonas aeruginosa (RCMB 0100243); test: Inhibition zone, agar cup diffusion; conditions: RCMB0100243, 24 h, read-out: inhibition zones (IZ) P.aeruginosa
[6] = tested on: Proteus vulgaris (RCMB 010085); test: Inhibition zone, agar cup diffusion; conditions: RCMB010085, 24 h, read-out: inhibition zones (IZ) P. vulgaris
[7] = tested on: Gram-positive and Gram-negative bacteria; test: In vitro antibacterial screening, whole panel; assay type: cell-based; conditions: whole bacterial panel, result in words
[8] = tested on: Staphylococcus epidermidis (RCMB 0100183); test: Inhibition zone, agar cup diffusion; conditions: RCMB0100183, 24 h, read-out: inhibition zones (IZ) S. epidermidis
[9] = tested on: Salmonella typhi (RCMB 0100104); test: Inhibition zone, agar cup diffusion; assay type: cell-based; conditions: Salmonella enterica, 24 h, read-out: inhibition zones (IZ) S. typhi
[10] = biological target: T2, ovine COX-1 (Ovis aries, UniProt P05979); test: In vitro COX-1 enzymatic assay (Cayman kit 560131); assay type: biochemical; conditions: Mean ± SEM of triplicate determinations
T2 construct: purchased Cayman Chemicals Inc. 560131
T2 sequence (P05979 25-600): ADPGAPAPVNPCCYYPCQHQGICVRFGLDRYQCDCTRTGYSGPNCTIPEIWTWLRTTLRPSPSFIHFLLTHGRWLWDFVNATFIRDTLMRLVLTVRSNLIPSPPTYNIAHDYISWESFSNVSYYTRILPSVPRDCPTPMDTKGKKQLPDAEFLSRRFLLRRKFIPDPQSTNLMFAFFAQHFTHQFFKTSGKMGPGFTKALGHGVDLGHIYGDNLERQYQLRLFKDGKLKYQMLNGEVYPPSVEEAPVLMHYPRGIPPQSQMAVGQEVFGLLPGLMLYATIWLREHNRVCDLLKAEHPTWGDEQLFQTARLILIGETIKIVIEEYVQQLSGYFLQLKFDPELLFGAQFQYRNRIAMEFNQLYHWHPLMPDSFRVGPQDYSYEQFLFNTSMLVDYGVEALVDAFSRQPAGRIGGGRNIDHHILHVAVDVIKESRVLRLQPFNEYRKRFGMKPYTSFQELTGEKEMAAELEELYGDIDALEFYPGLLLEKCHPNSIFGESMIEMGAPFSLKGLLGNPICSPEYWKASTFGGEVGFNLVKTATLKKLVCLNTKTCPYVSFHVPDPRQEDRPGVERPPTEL

[11] = tested on: Streptococcus mutans (RCMB 0100172); test: Inhibition zone, agar cup diffusion; conditions: RCMB0100172, 24 h, read-out: inhibition zones (IZ) S. mutans
[12] = tested on: Escherichia coli (RCMB 010052); test: Inhibition zone, agar cup diffusion; conditions: RCMB010052, 24 h, read-out: inhibition zones (IZ) E.coli
[13] = tested on: S. aureus Smith
[14] = tested on: E. coli C11
[15] = tested on: PGE2; test: Estimation of rat plasma PGE2; conditions: po 10 µmol/kg b.wt., 8 h after carrageenan
[16] = tested on: carrageenan-induced paw edoema; test: Carrageenan-induced paw edoema in mice

O=C(c1cc(/N=N/c2ccc(S(=O)(=O)Nc3nccs3)cc2)ccc1O)N1CCCCC1 [Compound 5i, 4-((4-Hydroxy-3-(piperidine-1-carbonyl)phenyl)diazenyl)-N-(thiazol-2-yl) benzenesulfonamide]
zone of inhibition at 1000 µg/mL [1]: 25 mm | zone of inhibition at 1000 µg/mL [2]: 19 mm | IC50 [3]: 0.08 ± 0.0008 µM | SI COX-1/COX-2 [3]: 136.6 | zone of inhibition at 1000 µg/mL [4]: 22 mm | zone of inhibition at 1000 µg/mL [5]: 18 mm | zone of inhibition at 1000 µg/mL [6]: 18 mm | in vitro antibacterial activity [7]: weak in vitro antibacterial activity | zone of inhibition at 1000 µg/mL [8]: 30 mm | zone of inhibition at 1000 µg/mL [9]: 15 mm | IC50 [10]: 11.2 ± 0.11 µM | zone of inhibition at 1000 µg/mL [11]: 31 mm | zone of inhibition at 1000 µg/mL [12]: 16 mm

O=C(O)c1cc(/N=N/c2ccc(S(=O)(=O)Nc3ccccn3)cc2)ccc1O [Sulfasalazine, reference compound]
ED50 ([13]; Staphylococcus aureus, in Mus musculus, read-out: ED50 against S. aureus infection): 314 µmol/kg | ED50, protective effect against bacteremic infection, Staphylococcus aureus ([13]; mice, challenge dose 9.5x10^6 CFU/mouse ip, intragastric once a day for 7 days, survival): 313.7 µmol/kg/day | ED50 ([14]; Escherichia coli, C11, in Mus musculus, read-out: ED50 against E.coli infection): 419 µmol/kg | ED50, protective effect against bacteremic infection, Escherichia coli ([14]; mice, challenge dose 7.1x10^3 CFU/mouse ip, intragastric once a day for 7 days, survival): 419.2 µmol/kg/day

Cc1ccnc(NS(=O)(=O)c2ccc(/N=N/c3ccc(O)c(C(=O)N4CCCCC4)c3)cc2)n1 [Compound 5k, 4-((4-Hydroxy-3-(piperidine-1-carbonyl)phenyl)diazenyl)-N-(4-methylpyrimidin-2-yl) benzenesulfonamide]
zone of inhibition at 1000 µg/mL [1]: 19 mm | zone of inhibition at 1000 µg/mL [2]: 18 mm | IC50 [3]: 0.09 ± 0.0003 µM | SI COX-1/COX-2 [3]: 111.9 | zone of inhibition at 1000 µg/mL [4]: 25 mm | zone of inhibition at 1000 µg/mL [5]: 14 mm | zone of inhibition at 1000 µg/mL [6]: 19 mm | in vitro antibacterial activity [7]: weak in vitro antibacterial activity | zone of inhibition at 1000 µg/mL [8]: 32 mm | zone of inhibition at 1000 µg/mL [9]: 14 mm | IC50 [10]: 10.3 ± 0.08 µM | zone of inhibition at 1000 µg/mL [11]: 28 mm | zone of inhibition at 1000 µg/mL [12]: 16 mm

Cc1ccc(-c2cc(C(F)(F)F)nn2-c2ccc(S(N)(=O)=O)cc2)cc1 [Celecoxib, reference compound]
% inhibition of PGE2-production ([15]; rat serum): 71.18% | PGE2 serum conc. ([15]; rat, Mean ± SEM, n = 5): 380.636 ± 5.53 pg/mL | ED50 ([16]; Mus musculus, 8 h, read-out: ED50 (95% confidence level)): 13.1 µmol/kg | Thickness of edoema 0h ([16]; mice, po 10 µmol/kg b.wt., 0 h (before carrageenan), Mean ± SEM, n = 5): 0.62 ± 0.01 mm | percentage anti-inflammatory activity (AI%) 2h ([16]; mice, po 10 µmol/kg b.wt., 2 h): (6.32%)^d | Thickness of edoema 2h ([16]; mice, po 10 µmol/kg b.wt., 2 h after carrageenan, Mean ± SEM, n = 5): 0.89 ± 0.01^c mm | percentage anti-inflammatory activity (AI%) 4h ([16]; mice, po 10 µmol/kg b.wt., 4 h): (45.14%) | Thickness of edoema 4h ([16]; mice, po 10 µmol/kg b.wt., 4 h after carrageenan, Mean ± SEM, n = 5): 0.79 ± 0.01^c mm | percentage anti-inflammatory activity (AI%) 6h ([16]; mice, po 10 µmol/kg b.wt., 6 h): (64.39%) | Thickness of edoema 6h ([16]; mice, po 10 µmol/kg b.wt., 6 h after carrageenan, Mean ± SEM, n = 5): 0.73 ± 0.03^c mm | percentage anti-inflammatory activity (AI%) 8h ([16]; mice, po 10 µmol/kg b.wt., 8 h): (70.87%) | percentage anti-inflammatory activity (AI%) 8h ([16]; mice, po 10 µmol/kg b.wt., 8 h, listed as celecoxib): 70.87% | Thickness of edoema 8h ([16]; mice, po 10 µmol/kg b.wt., 8 h after carrageenan, Mean ± SEM, n = 5): 0.67 ± 0.02^c mm

CCCCNC(=O)c1cc(/N=N/c2ccc(S(=O)(=O)Nc3nccc(C)n3)cc2)ccc1O [Compound 5d, N-Butyl-2-hydroxy-5-((4-(N-(4-methylpyrimidin-2yl)sulfamoyl)phenyl)diazenyl) benzamide]
zone of inhibition at 1000 µg/mL [1]: 28 mm | zone of inhibition at 1000 µg/mL [2]: 20 mm | IC50 [3]: 0.09 ± 0.001 µM | SI COX-1/COX-2 [3]: 116.5 | zone of inhibition at 1000 µg/mL [4]: 26 mm | zone of inhibition at 1000 µg/mL [5]: 18 mm | zone of inhibition at 1000 µg/mL [6]: 19 mm | zone of inhibition at 1000 µg/mL [8]: 32 mm | zone of inhibition at 1000 µg/mL [9]: 16 mm | IC50 [10]: 10.6 ± 0.08 µM | zone of inhibition at 1000 µg/mL [11]: 28 mm | zone of inhibition at 1000 µg/mL [12]: 16 mm

NS(=O)(=O)c1ccc(/N=N/c2ccc(O)c(C(=O)N3CCCCC3)c2)cc1 [Compound 5h, 4-((4-Hydroxy-3-(piperidine-1-carbonyl)phenyl)diazenyl) benzenesulfonamide]
zone of inhibition at 1000 µg/mL [1]: 22 mm | zone of inhibition at 1000 µg/mL [2]: 20 mm | IC50 [3]: 0.14 µM | SI COX-1/COX-2 [3]: 58.6 | zone of inhibition at 1000 µg/mL [4]: 24 mm | zone of inhibition at 1000 µg/mL [5]: 16 mm | zone of inhibition at 1000 µg/mL [6]: 19 mm | zone of inhibition at 1000 µg/mL [8]: 29 mm | zone of inhibition at 1000 µg/mL [9]: 18 mm | IC50 [10]: 8.2 ± 0.12 µM | zone of inhibition at 1000 µg/mL [11]: 29 mm | zone of inhibition at 1000 µg/mL [12]: 14 mm

O=C(c1cc(N=Nc2ccc(S(=O)(=O)Nc3nccs3)cc2)ccc1O)N1CCOCC1 [Compound 5m, 4-((4-Hydroxy-3-(morpholine-4-carbonyl)phenyl)diazenyl)-N-(thiazol-2-yl)benzenesulfonamide]
zone of inhibition at 1000 µg/mL [1]: 25 mm | zone of inhibition at 1000 µg/mL [2]: 20 mm | IC50 [3]: 0.1 ± 0.0008 µM | SI COX-1/COX-2 [3]: 102.1 | zone of inhibition at 1000 µg/mL [4]: 24 mm | zone of inhibition at 1000 µg/mL [5]: 18 mm | zone of inhibition at 1000 µg/mL [6]: 16 mm | in vitro antibacterial activity [7]: weak in vitro antibacterial activity | zone of inhibition at 1000 µg/mL [8]: 33 mm | zone of inhibition at 1000 µg/mL [9]: 16 mm | IC50 [10]: 9.9 µM | zone of inhibition at 1000 µg/mL [11]: 29 mm | zone of inhibition at 1000 µg/mL [12]: 18 mm

CCCCNC(=O)c1cc(/N=N/c2ccc(S(N)(=O)=O)cc2)ccc1O [Compound 5a, N-Butyl-2-hydroxy-5-((4-sulfamoylphenyl)diazenyl) benzamide]
zone of inhibition at 1000 µg/mL [1]: 26 mm | zone of inhibition at 1000 µg/mL [2]: 17 mm | IC50 [3]: 0.11 ± 0.0003 µM | SI COX-1/COX-2 [3]: 87.3 | zone of inhibition at 1000 µg/mL [4]: 25 mm | zone of inhibition at 1000 µg/mL [5]: 14 mm | zone of inhibition at 1000 µg/mL [6]: 18 mm | zone of inhibition at 1000 µg/mL [8]: 33 mm | zone of inhibition at 1000 µg/mL [9]: 15 mm | IC50 [10]: 9.6 ± 0.06 µM | zone of inhibition at 1000 µg/mL [11]: 29 mm | zone of inhibition at 1000 µg/mL [12]: 14 mm
